Data reported in patent US20060063759A1, “Tricyclic steroid hormone nuclear receptor modulators” (priority 2002, published 2006).

Key:
[1] = biological target: T1, human MR (Homo sapiens, UniProt P08235); experiment: Mineralocorticoid Receptor Binding Assay ([3H]-aldosterone); details: [3H]-aldosterone binding, human MR expressed in Sf9 cells; read-out: MR Ki
T1 construct: The full length human MR gene is cloned from a human kidney or human brain cDNA library; His tag from the pAcHLT vector (own knowledge); made in house; host or cells: Sf9 insect cells (baculovirus, pAcHLT transfer vector)
T1 sequence (P08235 1-984): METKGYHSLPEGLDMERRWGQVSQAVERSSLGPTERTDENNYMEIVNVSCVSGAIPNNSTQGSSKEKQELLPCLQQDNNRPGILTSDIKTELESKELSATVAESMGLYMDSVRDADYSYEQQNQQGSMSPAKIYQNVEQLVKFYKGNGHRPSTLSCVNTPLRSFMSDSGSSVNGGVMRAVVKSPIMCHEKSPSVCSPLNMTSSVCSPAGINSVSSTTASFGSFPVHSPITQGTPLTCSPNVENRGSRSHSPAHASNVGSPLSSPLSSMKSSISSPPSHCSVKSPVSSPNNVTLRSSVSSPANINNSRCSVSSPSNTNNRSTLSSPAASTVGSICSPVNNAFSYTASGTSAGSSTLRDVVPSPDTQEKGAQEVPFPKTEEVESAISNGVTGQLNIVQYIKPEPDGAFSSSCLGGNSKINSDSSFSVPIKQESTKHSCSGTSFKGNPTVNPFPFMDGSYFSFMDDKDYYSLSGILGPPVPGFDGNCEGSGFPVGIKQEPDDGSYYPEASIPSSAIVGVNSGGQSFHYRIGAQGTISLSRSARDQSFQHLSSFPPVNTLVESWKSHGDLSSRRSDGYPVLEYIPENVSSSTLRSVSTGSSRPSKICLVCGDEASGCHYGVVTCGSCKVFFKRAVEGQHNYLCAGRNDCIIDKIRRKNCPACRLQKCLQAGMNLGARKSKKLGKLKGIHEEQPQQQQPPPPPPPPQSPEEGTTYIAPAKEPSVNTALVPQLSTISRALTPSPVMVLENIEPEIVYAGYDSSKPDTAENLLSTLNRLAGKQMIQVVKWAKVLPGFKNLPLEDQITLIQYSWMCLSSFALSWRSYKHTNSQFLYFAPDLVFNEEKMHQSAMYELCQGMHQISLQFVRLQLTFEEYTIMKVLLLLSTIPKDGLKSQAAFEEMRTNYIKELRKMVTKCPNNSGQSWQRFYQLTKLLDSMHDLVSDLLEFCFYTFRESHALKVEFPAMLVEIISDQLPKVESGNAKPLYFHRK
How it was run: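 Receptor source: freeze-thaw lysate of baculovirus-infected Sf9 cells carrying full-length human MR, 20-25 μg protein. Incubation ~16 h at 4 °C with shaking, pH 7.5 buffer containing 30 mM sodium molybdate and 10% glycerol.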

[2] = biological target: T2, glucocorticoid receptor (Homo sapiens, UniProt P04150); experiment: Glucocorticoid Receptor Binding Assay ([3H]-dexamethasone, A549 cell extract); details: [3H]-dexamethasone binding, read-out: GR Ki
T2 construct: containing 50-200 ug of A549 cell extract and 1.86 nM [^3H]-dexamethasone; host or cells: A549 human lung epithelial cells (sonicated cell extract)
T2 sequence (P04150 1-777): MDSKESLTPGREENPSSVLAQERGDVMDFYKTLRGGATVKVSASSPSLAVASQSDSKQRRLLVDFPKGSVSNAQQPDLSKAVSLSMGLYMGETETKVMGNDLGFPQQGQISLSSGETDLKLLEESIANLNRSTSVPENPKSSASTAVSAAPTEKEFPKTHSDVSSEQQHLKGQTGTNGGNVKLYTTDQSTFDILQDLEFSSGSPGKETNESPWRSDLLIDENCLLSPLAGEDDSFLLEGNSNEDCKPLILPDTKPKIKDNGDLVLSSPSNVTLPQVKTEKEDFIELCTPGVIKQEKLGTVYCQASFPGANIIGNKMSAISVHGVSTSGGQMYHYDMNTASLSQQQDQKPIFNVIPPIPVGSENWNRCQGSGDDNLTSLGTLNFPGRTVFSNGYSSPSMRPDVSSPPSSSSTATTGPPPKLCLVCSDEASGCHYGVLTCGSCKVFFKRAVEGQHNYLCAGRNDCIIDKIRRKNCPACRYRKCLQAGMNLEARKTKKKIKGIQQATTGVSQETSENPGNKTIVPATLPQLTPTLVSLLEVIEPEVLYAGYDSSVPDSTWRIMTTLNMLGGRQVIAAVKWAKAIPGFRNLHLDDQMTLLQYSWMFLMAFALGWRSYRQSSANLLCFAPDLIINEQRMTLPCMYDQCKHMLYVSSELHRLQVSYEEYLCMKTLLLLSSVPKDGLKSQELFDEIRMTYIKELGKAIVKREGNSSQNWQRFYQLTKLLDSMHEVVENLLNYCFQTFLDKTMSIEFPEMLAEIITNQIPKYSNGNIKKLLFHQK
How it was run: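 Displacement of [3H]-dexamethasone (1.86 nM) from glucocorticoid receptor in sonicated A549 lung epithelial cell extracts, 16 h at 4 °C, pH 7.2 molybdate-containing buffer. Bound radioactivity was scintillation-counted after charcoal/dextran stripping of free ligand.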

## Fc1ccc2c(c1)CCc1ccccc1C2=Cc1cccnc1F [Example 474]
[1]
  Ki: < 500 nM
[2]
  Ki: < 1000 nM

## CS(=O)(=O)Nc1cccc(/C=C2\c3ccccc3CCc3sccc32)c1 [Example 475]
[1]
  Ki: < 500 nM
[2]
  Ki: < 10000 nM

## CS(=O)(=O)Nc1cccc(/C=C2/c3ccccc3CCc3sccc32)c1 [Example 476]
[1]
  Ki: < 500 nM
[2]
  Ki: < 500 nM

## Nc1cccc(C=C2c3ccccc3CCc3sccc32)c1 [Example 477, 3-(9,10-Dihydro-1-thia-benzo[f]azulen-4-ylidenemethyl)-phenylamine]
[1]
  Ki: < 500 nM
[2]
  Ki: < 10000 nM

## Nc1cccc(/C=C2\c3ccc(Cl)cc3CCc3sccc32)c1 [Example 478, 3-(7-Chloro-9,10-dihydro-1-thia-benzo[f]azulen-4-ylidenemethyl)-phenylamine]
[1]
  Ki: < 500 nM
[2]
  Ki: < 10000 nM

## CS(=O)(=O)Nc1cccc(/C=C2\c3ccccc3CCc3sc(Cl)cc32)c1 [Example 481, N-[3-(2-Chloro-9,10-dihydro-1-thia-benzo[f]azulen-4-ylidenemethyl)-phenyl]-methanesulfonamide]
[1]
  Ki: < 500 nM
[2]
  Ki: < 500 nM

## CS(=O)(=O)Nc1cccc(/C=C2\c3ccc(Cl)cc3CCc3sc(Cl)cc32)c1 [Example 482, N-[3-(2,7-Dichloro-9,10-dihydro-1-thia-benzo[f]azulen-4-ylidenemethyl)-phenyl]-methanesulfonamide]
[1]
  Ki: < 500 nM
[2]
  Ki: < 500 nM

## O=c1[nH]c2ccc(/C=C3\c4ccc(F)cc4CCc4ncccc43)cc2[nH]1 [Example 487, (E)-5-(8-Fluoro-10,11-dihydro-benzo[4,5]cyclohepta[1,2-b]pyridin-5-ylidenemethyl)-1,3-dihydro-benzoimidazol-2-one]
[1]
  Ki: < 500 nM
[2]
  Ki: < 1000 nM

## CS(=O)(=O)Nc1cc(F)cc(/C=C2\c3ccc(F)cc3CCc3ncccc32)c1 [Example 488, (E)-N-[3-Fluoro-5-(8-fluoro-10,11-dihydro-benzo[4,5]cyclohepta[1,2-b]pyridin-5-ylidenemethyl)-phenyl]-methanesulfonamide]
[1]
  Ki: < 500 nM
[2]
  Ki: < 500 nM

## C(=C1c2ccccc2CCc2sccc21)c1ccccc1 [Example 489]
[1]
  Ki: < 500 nM
[2]
  Ki: < 10000 nM

## Clc1ccc(C=C2c3ccccc3CCc3sccc32)c(Cl)c1 [Example 490]
[1]
  Ki: < 1000 nM
[2]
  Ki: < 10000 nM

## Cc1cc(C)cc(C=C2c3ccccc3CCc3sccc32)c1 [Example 491]
[1]
  Ki: < 500 nM
[2]
  Ki: < 10000 nM

## CS(=O)(=O)Nc1ccc(C=C2c3ccccc3CCc3sccc32)cc1 [Example 495]
[1]
  Ki: < 500 nM
[2]
  Ki: < 500 nM

## CS(=O)(=O)Nc1cccc(/C=C2\c3ccc(Cl)cc3CCc3sccc32)c1 [Example 496]
[1]
  Ki: < 500 nM
[2]
  Ki: < 500 nM

## Nc1cccc(C=C2c3ccccc3CCc3ccsc32)c1 [Example 498]
[1]
  Ki: < 500 nM
[2]
  Ki: < 1000 nM

## CS(=O)(=O)Nc1cccc(/C=C2/c3ccc(Cl)cc3CCc3sccc32)c1 [Example 499]
[1]
  Ki: < 500 nM
[2]
  Ki: < 500 nM

## CS(=O)(=O)Nc1cccc(/C=C2\c3ccccc3CCc3ccsc32)c1 [Example 501]
[1]
  Ki: < 500 nM
[2]
  Ki: < 500 nM

## CS(=O)(=O)Nc1cccc(/C=C2/c3ccccc3CCc3ccsc32)c1 [Example 502]
[1]
  Ki: < 500 nM
[2]
  Ki: < 500 nM

## O=S(=O)(Nc1cccc(/C=C2/c3ccccc3CCc3sccc32)c1)c1ccccc1 [Example 503]
[1]
  Ki: < 500 nM
[2]
  Ki: < 500 nM

## CS(=O)(=O)Nc1cccc(C=C2c3ccccc3CCc3occc32)c1 [Example 504]
[1]
  Ki: < 500 nM
[2]
  Ki: < 500 nM

## CS(=O)(=O)Nc1cccc(C=C2c3ccccc3CCc3ncccc32)c1 [Example 505]
[1]
  Ki: < 500 nM
[2]
  Ki: < 1000 nM

## CS(=O)(=O)Nc1cccc(/C=C2\c3ccccc3CCc3ncccc32)c1 [Example 506]
[1]
  Ki: < 500 nM
[2]
  Ki: < 500 nM

## Oc1cccc(/C=C2/c3ccccc3CCc3ncccc32)c1 [Example 507]
[1]
  Ki: < 500 nM
[2]
  Ki: < 500 nM

## CS(=O)(=O)Nc1cccc(/C=C2/c3ccc(F)cc3CCc3ncccc32)c1 [Example 510]
[1]
  Ki: < 500 nM
[2]
  Ki: < 10000 nM

## Oc1cccc(/C=C2/c3ccccc3CCc3ccncc32)c1 [Example 514]
[1]
  Ki: < 1000 nM
[2]
  Ki: < 500 nM

## CS(=O)(=O)Nc1cccc(/C=C2\c3ccccc3CCc3ccncc32)c1 [Example 515]
[1]
  Ki: < 500 nM
[2]
  Ki: < 10000 nM

## CS(=O)(=O)Nc1cccc(C[C@H]2c3ccccc3CCc3ncccc32)c1 [Example 517]
[1]
  Ki: < 500 nM
[2]
  Ki: < 1000 nM

## O=c1[nH]c2ccc(/C=C3/c4ccc(F)cc4CCc4ncccc43)cc2[nH]1 [Example 518]
[1]
  Ki: < 500 nM
[2]
  Ki: < 500 nM

## CS(=O)(=O)Nc1cccc(CC2c3ccc(F)cc3CCc3ncccc32)c1 (stereo not shown) [Example 519]
[1]
  Ki: < 500 nM
[2]
  Ki: < 500 nM

## CS(=O)(=O)Nc1cccc(CC2c3ccc(F)cc3CCc3ncccc32)c1 (stereo not shown) [Example 520]
[1]
  Ki: < 500 nM
[2]
  Ki: < 500 nM

## CS(=O)(=O)Nc1cccc(/C=C2/c3ccc(F)cc3CCc3nc(C(F)(F)F)ccc32)c1 [Example 521]
[1]
  Ki: < 500 nM
[2]
  Ki: < 500 nM

## CS(=O)(=O)Nc1cccc(/C=C2\c3ccc(F)cc3CCc3nc(C(F)(F)F)ccc32)c1 [Example 522]
[1]
  Ki: < 500 nM
[2]
  Ki: < 500 nM

## CS(=O)(=O)Nc1cc(/C=C2\c3ccc(F)cc3CCc3ncccc32)ccc1F [Example 524]
[1]
  Ki: < 500 nM
[2]
  Ki: < 500 nM

## CS(=O)(=O)Nc1cc(F)cc(/C=C2/c3ccc(F)cc3CCc3ncccc32)c1 [Example 525]
[1]
  Ki: < 500 nM
[2]
  Ki: < 500 nM

## Fc1ccc2c(c1)CCc1ncccc1/C2=C/c1ccccc1 [Example 526]
[1]
  Ki: < 500 nM
[2]
  Ki: < 10000 nM

## Fc1ccc2c(c1)CCc1ncccc1/C2=C\c1ccccc1 [Example 527]
[1]
  Ki: < 500 nM
[2]
  Ki: < 10000 nM

## Oc1ccc(/C=C2\c3ccc(F)cc3CCc3ncccc32)cc1 [Example 528]
[1]
  Ki: < 500 nM
[2]
  Ki: < 1000 nM

## Oc1ccc(/C=C2/c3ccc(F)cc3CCc3ncccc32)cc1 [Example 529]
[1]
  Ki: < 500 nM
[2]
  Ki: < 10000 nM

## Nc1ccccc1/C=C1\c2ccc(F)cc2CCc2ncccc21 [Example 530]
[1]
  Ki: < 500 nM
[2]
  Ki: < 500 nM

## Nc1ccccc1/C=C1/c2ccc(F)cc2CCc2ncccc21 [Example 531]
[1]
  Ki: < 500 nM
[2]
  Ki: < 500 nM

## Nc1cccc(/C=C2\c3ccc(F)cc3CCc3ncccc32)c1 [Example 532]
[1]
  Ki: < 500 nM
[2]
  Ki: < 1000 nM

## Nc1cccc(/C=C2/c3ccc(F)cc3CCc3ncccc32)c1 [Example 533]
[1]
  Ki: < 500 nM
[2]
  Ki: < 1000 nM

## Nc1ccc(/C=C2\c3ccc(F)cc3CCc3ncccc32)cc1 [Example 534]
[1]
  Ki: < 500 nM
[2]
  Ki: < 10000 nM

## Nc1ccc(/C=C2/c3ccc(F)cc3CCc3ncccc32)cc1 [Example 535]
[1]
  Ki: < 1000 nM
[2]
  Ki: < 10000 nM
